Experiments:
[1] = system: proteasome CT-L activity in MM.1R cells; assay: Proteasome-Glo cell-based assay, CT-L activity in MM.1R cells; details: read-out: IC50 of cellular proteasome CT-L activity, treated 1 h
Procedure: (§3) In vitro, the 20S proteasome activity of cells was detected by using the Proteasome-Glo Assay (Promega, USA) either after drug treatment for 4, 24, or 48 h in fresh medium.
(§4) Proteasome activity was measured by the Proteasome-Glo cell-based assay.

[2] = system: NF-κB activity in NF-κB-luc HEK293T cells; assay: NF-κB luciferase reporter assay, TNF-α stimulated; details: Homo sapiens, HEK-293T, read-out: IC50 of NF-κB luciferase activity
Procedure: The plasmids pcDNA3.1-(+)-NF-κB and pcDNA3.1-(+)-Renilla were mixed with Lipofectamine 2000 (Invitrogen, USA) and then transfected into HEK293T cells (Institute of Biochemistry and Cell Biology, China). […] The activity of NF-κB was examined by the Dual-Luciferase® Reporter Assay System (Promega, USA) as previously described[22].
Activation of NF-κB was determined by luciferase reporter gene assay using stably transfected NF-κB-luc HEK293T cells. The NF-κB signaling pathway was activated by TNF-α stimulation.

MM.1R cells = assay: CCK-8 cell viability, MM.1R; type: cell-based; details: Homo sapiens, 72h
Procedure: (§1) Cell viability was detected by Cell Counting Kit-8 (CCK-8) (Dojindo Laboratories, Japan). MM cells were seeded on 96-well plates and placed in an incubator for 24 h. After being treated with drugs for another 72 h, cell viability was examined using the CCK-8 reagent. The CellTiter-Glo Luminescent Cell Viability Assay Kit (Promega, USA) was used to determine the viability of CD138^+ cells and PBMCs. For flow cytometry, MM cells were seeded in 6-well plates and placed in an incubator for 24 h. Then, the MM cells were incubated with drugs for another 24 h and collected for flow cytometry analysis. The cell cycle was examined by flow cytometry using a propidium iodide (PI) staining assay kit (BD Biosciences, USA). Cell apoptosis was detected by flow cytometry using the Annexin V/PI Kit (BD Biosciences, USA).
(§2) The Cell Counting Kit-8 (CCK-8) assay was used for cell viability assessment. CCK-8 provided a highly water-soluble tetrazole salt, WST-8, which would produce a water-soluble orange formazan in the presence of dehydrogenase derived from living cells. The OD value was detected at 450 nm with a microplate analyzer to indirectly reflect the number of living cells. […] Among the four patients, patients 1 (Fig. 2E), 2 (Fig. 2F), and 3 (Fig. 2G) were newly diagnosed, and patient 4 (Fig. 2H) had experienced relapse after prior therapies.

hERG channels = biological target: T1, hERG channels (Homo sapiens, UniProt Q12809); assay: hERG whole-cell patch-clamp, tail current; type: cell-based
T1 construct: expressed in transfected cells; host or cells: HEK293T
Procedure: The activation of the hERG pathway was detected by the whole-cell patch-clamp technique at room temperature (22 ± 1 °C) using an AXON 200B amplifier through a digitizer (DigiData 1440A, Molecular Devices, USA) controlled by pClamp software (v10.0) as previously described.
Human ether-à-go-go-related gene (hERG) K^+ channels are vital in cardiac repolarization[28],[29]. Drug cardiotoxicity can be partially attributed to hERG channel dysfunction that leads to long QT syndrome and ventricular action potential delay. […] The real-time current was measured during drug treatment. Figure 8A presents the command waveform of the tail-current protocol under voltage-clamp mode.

ARP1 xenografts = assay: ARP1 xenograft in BALB/c nude mice; type: in vivo, mouse; details: i.v. 4 mg/kg twice a week
Procedure: BALB/c nude mice (male, 4–6 weeks old) were purchased from Ziyuan Co., Ltd. (Hangzhou, China). ARP1 cells (1 × 10^6 cells in 100 μl PBS) were injected subcutaneously into the hindquarters of each mouse. […] All mice were observed every 2 days for at least 7 weeks. Tumor growth was assessed by calculating volume according to the following equation: volume = a × b^2/2, where a is the widest length and b is the perpendicular diameter. On the appointed day, fifteen tumor tissue samples were removed from the mice for hematoxylin and eosin (H&E) staining and stained with Ki67 and CD138 antibodies. Investigators were blinded to the group allocation during measuring tumor size, weight, and performing staining. All animal procedures were approved by the Institutional Review Board of the College of Life Science, Nanjing Normal University (Approval No. IACUC-20200506).
We next validated the anti-tumor role of D395 in vivo. Human MM cell line ARP1 (1 × 10^6 cells per mouse) were injected subcutaneously into BALB/c nude mice. […] The medication was given twice a week. Tumor size was measured every 3 days (Fig. 5A). […] On the endpoint day, all the mice were sacrificed, and tumors were collected (Fig. 5B, C). […] Tumor tissues were sampled for immunohistochemistry. The tissues were stained for Ki67, a cell proliferation marker, to show tumor growth (Fig. 5E).

[3] = system: MM patient-derived CD138+ cells; assay: Viability of MM patient-derived BM CD138+ cells; type: cell-based; details: Homo sapiens, primary MM cell
Procedure: Human MM.1S (dexamethasone-sensitive), MM.1R (dexamethasone-resistant), ARP1, and RPMI-8226 MM cell lines were obtained from American Type Culture Collection (ATCC, Rockville, USA) and cultured in RPMI-1640 medium (Gibco-BRL, USA) supplemented with 10% fetal bovine serum (Gibco, USA) and 1% penicillin/streptomycin (Gibco, USA). All the cells are maintained in 5% CO2 at 37 °C and have been tested for mycoplasma contamination. Peripheral blood mononuclear cells (PBMCs) were collected from healthy volunteers. BM mononuclear cells and PBMCs from MM patients were isolated by Ficoll-Hypaque density-gradient separation. CD138^+ cells were isolated from BM mononuclear cells of MM patients using CD138^+ Micro Beads and the Auto MACS magnetic cell sorter (Miltenyi Biotech, Germany). All primary samples were obtained with informed consent from patients with MM or healthy donors according to the Declaration of Helsinki. This study was approved by the Review Committee of the First Affiliated Hospital of Nanjing Medical University.
as §1, §2

six non-proteasomes = assay: Non-proteasome substrate-based assay (six non-proteasomes)
Procedure: A standard substrate-based assay of non-proteasome was performed as described (GenScript, China)[19].

ARP1 cells = assay: CCK-8 cell viability, ARP1; type: cell-based; details: Homo sapiens, ARP-1; ARP1, 72h
Procedure: as §1, §2

RPMI-8226 cells = assay: CCK-8 cell viability, RPMI-8226; type: cell-based; details: Homo sapiens; RPMI-8226, 72h
Procedure: as §1, §2

[4] = system: proteasome CT-L activity in RPMI-8226 cells; assay: Proteasome-Glo cell-based assay, CT-L activity in RPMI-8226 cells; details: read-out: IC50 of cellular proteasome CT-L activity, treated 1 h
Procedure: as §3, §4

MM patients = details: carfilzomib-treated MM patients ref 13, 14; cited from earlier work
C57BL/6 mice = assay: Cardiotoxicity in C57BL/6 mice (echocardiography, serum enzymes, histopathology); type: in vivo, mouse; details: 8 mg/kg i.p. every 2 days for 1 week
Procedure: On day 7, the mice were sacrificed after an echocardiography test to harvest the serum for biochemical estimations. Biochemical estimations, including alanine aminotransferase (ALT), aspartate transaminase (AST), lactic dehydrogenase (LDH), creatine kinase-MB (CK-MB), and creatine kinase (CK), were tested using an autoanalyzer (Siemens, USA). Freshly harvested cardiac tissue was fixed in 4% buffered formalin solution for 24 h and embedded in paraffin wax. Sections ([…] thick) were obtained from each sample and stained with H&E. Histologic observation was performed with a Nikon i55 optical microscope (Nikon Corporation, Japan).
In addition, CT-L activity recovered in a time-dependent manner, as previously discovered in vitro (Fig. 7B). […] The echocardiographic analysis was performed at baseline (day 0) and endpoint (day 7) (Fig. 7D). […] We also examined the levels of CK, CK-MB, LDH, ALT, and AST in the blood serum from the treated mice.

MM.1S cells = assay: CCK-8 cell viability, MM.1S; type: cell-based; details: Homo sapiens, MM1.S, 72h
Procedure: as §1, §2

[5] = system: proteasome CT-L activity in MM.1S cells; assay: Proteasome-Glo cell-based assay, CT-L activity in MM.1S cells; details: read-out: IC50 of cellular proteasome CT-L activity, treated 1 h
Procedure: as §3, §4

RPMI-8226 BTZ-DR cells = assay: Annexin V flow cytometry in bortezomib-resistant cells; type: cell-based, human
Procedure: as §1
It is known that drug resistance limits the application of proteasome inhibitors in clinical treatment.

T1 sequence (Q12809 whole entry): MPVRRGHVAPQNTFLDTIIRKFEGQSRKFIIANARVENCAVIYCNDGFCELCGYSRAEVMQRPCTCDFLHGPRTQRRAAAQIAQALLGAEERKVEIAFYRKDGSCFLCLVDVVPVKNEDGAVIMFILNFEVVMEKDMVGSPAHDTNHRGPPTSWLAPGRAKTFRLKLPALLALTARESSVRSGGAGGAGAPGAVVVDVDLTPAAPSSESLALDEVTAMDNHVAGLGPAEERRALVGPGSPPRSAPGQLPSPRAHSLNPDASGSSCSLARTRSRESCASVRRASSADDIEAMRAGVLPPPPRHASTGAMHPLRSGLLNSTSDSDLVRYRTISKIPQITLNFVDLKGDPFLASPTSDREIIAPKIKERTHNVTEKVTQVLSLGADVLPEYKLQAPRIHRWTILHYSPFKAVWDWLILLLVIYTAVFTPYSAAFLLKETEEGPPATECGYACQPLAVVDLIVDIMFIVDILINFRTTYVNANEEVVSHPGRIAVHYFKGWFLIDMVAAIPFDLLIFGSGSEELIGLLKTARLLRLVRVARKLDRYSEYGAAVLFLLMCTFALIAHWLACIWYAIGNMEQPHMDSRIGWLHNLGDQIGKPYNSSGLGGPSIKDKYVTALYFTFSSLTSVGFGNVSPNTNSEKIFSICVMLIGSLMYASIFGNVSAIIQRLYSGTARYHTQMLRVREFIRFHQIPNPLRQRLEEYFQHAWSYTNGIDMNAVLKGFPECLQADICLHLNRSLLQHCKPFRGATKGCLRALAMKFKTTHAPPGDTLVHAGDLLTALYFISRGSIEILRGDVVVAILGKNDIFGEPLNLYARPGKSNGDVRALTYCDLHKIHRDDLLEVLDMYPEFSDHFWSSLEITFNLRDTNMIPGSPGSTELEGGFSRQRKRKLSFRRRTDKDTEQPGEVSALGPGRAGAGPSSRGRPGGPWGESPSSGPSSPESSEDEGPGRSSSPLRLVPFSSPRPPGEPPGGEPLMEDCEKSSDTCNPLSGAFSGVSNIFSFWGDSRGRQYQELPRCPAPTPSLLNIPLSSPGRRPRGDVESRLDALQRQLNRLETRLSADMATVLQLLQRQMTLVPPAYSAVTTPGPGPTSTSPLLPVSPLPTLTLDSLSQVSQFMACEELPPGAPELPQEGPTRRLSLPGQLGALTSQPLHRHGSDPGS

CC(C)C[C@H](NC(=O)[C@H](CCc1ccccc1)NC(=O)CN1CCOCC1)C(=O)N[C@@H](Cc1ccccc1)C(=O)N[C@@H](CC(C)C)C(=O)[C@@]1(C)CO1 [Carfilzomib]
IC50 [1]: 18.1 nM
IC50 [2]: 35.7 nM
IC50 (MM.1R cells): 11 ± 0.9 nM
IC50 (hERG channels): 25700 nM
Tumor growth (ARP1 xenografts; ARP1 xenograft): grew slower than those in the control group
Weight of the mice (ARP1 xenografts; treatment period): the weight of the mice did not change
CT-L, C-L, and T-L activities in tumor samples (ARP1 xenografts; tumors at endpoint): lower in the carfilzomib and D395 groups than in the control group
IC50 ([3]; 24 h, patient 1 (newly diagnosed)): 56.5 ± 2.5 nM
IC50 ([3]; 24 h, patient 2 (newly diagnosed)): 354 ± 19.4 nM
IC50 ([3]; 24 h, patient 3 (newly diagnosed)): 444 ± 48 nM
IC50 ([3]; 24 h, patient 4 (relapsed)): 38 ± 5.8 nM
IC50 ([3]; 36 h, patient 2 (newly diagnosed)): 339 ± 22.8 nM
IC50 ([3]; 36 h, patient 3 (newly diagnosed)): 288 ± 19.5 nM
Inhibitory effect on six non-proteasomes (six non-proteasomes): neither carfilzomib nor D395 exerted an inhibitory effect
IC50 (ARP1 cells): 35.6 ± 5.1 nM
IC50 (RPMI-8226 cells): 13.5 ± 1.9 nM
IC50 [4]: 25.8 nM
Incidence of cardiotoxicity (MM patients): 5–10%
Heart histological analysis (H&E) (C57BL/6 mice): myocardial degeneration and myocardial fiber damage with cytoplasmic vacuoles
FS% and EF% (echocardiography) (C57BL/6 mice; day 7): the FS% and EF% decreased in both the carfilzomib and D395 groups
Serum CK-MB and LDH levels (C57BL/6 mice; day 7): increased in the carfilzomib group
LVEDD, LVESD, LVEDV, LVESV (C57BL/6 mice; versus control group): No significant differences in LVEDD, LVESD, LVEDV, or LVESV
IC50 (MM.1S cells): 7 ± 0.9 nM
IC50 [5]: 13.8 nM

CC(C)C[C@H](NC(=O)[C@H](Cc1ccccc1)NC(=O)c1cnccn1)B(O)O [bortezomib, Bortezomib]
Apoptotic population / cell death (RPMI-8226 BTZ-DR cells): lower than that of the RPMI-8226 WT group
